{"source": "patent US10058558B2", "about": "“Pharmaceutical composition comprising N1-cyclic amine-N5-substituted biguanide derivatives as an ingredient for preventing or treating fibrosis” (ImmunoMet Therapeutics Inc., priority 2013, dated 2018)", "key": {"Snail": {"test_system": "Snail", "assay": "Snail expression in MCF7 cells (EMT-suppressing effect)"}, "[1]": {"test_system": "peritoneal mesothelial cells", "experimental": "That is, this experiment was designed to examine the morphological change in the peritoneal mesothelial cells by high glucose treatment along with the expression levels of mRNA and proteins of fibrosis-mediating materials and the ECM-related materials.\nTo this end, the peritonea of the male wistar rats were dissected and their peritoneal mesothelial cells were subjected to primary culture using 0.25% trypsin-EDTA. The experiment was performed after dividing them into the following three groups:"}}, "note": "Read-outs that look alike come from different tables or passages of the source."}
{"smiles": "CC(=O)O.N=C(NC(=N)N1CCCC1)Nc1ccc(OC(F)(F)F)cc1", "note": "[Example 44, N1-pyrrolidine-N5-(4-trifluoromethoxy)phenyl biguanide acetate [N-(N-(4-(trifluoromethoxy)phenyl)carbamimidoyl)pyrrolidine-1-carboximidamideacetate]]", "values": [{"measurement": "suppression of the expression of Snail", "setting": "Snail", "value": "strongly suppress the expression of Snail"}, {"measurement": "morphology of peritoneal mesothelial cells turned into myofibroblasts by high glucose treatment", "setting": "[1]", "value": "returned to maintain a shape similar to that of the normal ones (a cobblestone shape)"}]}
{"smiles": "CN(C)C(=N)N=C(N)N", "note": "[metformin]", "values": [{"measurement": "suppression of the expression of Snail", "setting": "Snail; MCF7 cells, 1000 μM, FIG. 1", "value": "failed to suppress the expression of Snail"}]}
{"smiles": "[H]/N=C(/N)N/C(=N/[H])NCCc1ccccc1", "note": "[phenformin]", "values": [{"measurement": "suppression of the expression of Snail", "setting": "Snail; MCF7 cells, 10 μM, FIG. 1", "value": "did not show any effect regarding the suppression of Snail expression"}]}
